How the values were obtained:
[1] = test system: Human immunodeficiency virus 1; test: Tested in vitro against MT-4 human lymphoid cells infected with the type IIIb isolate; type: functional; conditions: Human immunodeficiency virus 1, lymphoid; read-out: CIC95
[2] = target: Human immunodeficiency virus type 1 protease (Human immunodeficiency virus 1, UniProt Q72874); test: Tested in vitro for the ability to inhibit HIV-1 protease
[3] = test system: Human immunodeficiency virus 1; test: Ratio of CIC95 to that of IC50 was determined; type: functional

Compound | IC95 [1] | IC50 [2] | Ratio [3]
CCCCCCCCN1CCN(C[C@@H](O)[C@H](Cc2ccccc2)NC(=O)O[C@@H]2CCS(=O)(=O)[C@@H]2C(C)C)[C@H](C(=O)NC(C)(C)C)C1 | 200 nM |  | 
CC(C)[C@@H]1[C@H](OC(=O)N[C@@H](Cc2ccccc2)[C@H](O)CN2CCN(C3CCCC3)C[C@H]2C(=O)NC(C)(C)C)CCS1(=O)=O | 150 nM |  | 
CC(C)[C@@H]1[C@H](OC(=O)N[C@@H](Cc2ccccc2)[C@H](O)CN2CCN(C3CC(c4ccccc4)C3)C[C@H]2C(=O)NC(C)(C)C)CCS1(=O)=O (some centres not stated) | 100 nM | 3.8 nM | 26
CC(C)[C@@H]1[C@H](OC(=O)N[C@@H](Cc2ccccc2)[C@H](O)CN2CCN(C3CCCCC3)C[C@H]2C(=O)NC(C)(C)C)CCS1(=O)=O | 200 nM |  | 
CC(C)[C@@H]1[C@H](OC(=O)N[C@@H](Cc2ccccc2)[C@H](O)CN2CCN(C3Cc4ccccc4C3)C[C@H]2C(=O)NC(C)(C)C)CCS1(=O)=O | 100 nM | 5.3 nM | 19
CC(C)[C@@H]1[C@H](OC(=O)N[C@@H](Cc2ccccc2)[C@H](O)CN2CCN(CC(C)(C)C)C[C@H]2C(=O)NC(C)(C)C)CCS1(=O)=O | 200 nM |  | 
CC(C)[C@@H]1[C@H](OC(=O)N[C@@H](Cc2ccccc2)[C@H](O)CN2CCN(C3CCSCC3)C[C@H]2C(=O)NC(C)(C)C)CCS1(=O)=O | 200 nM |  | 
CCC(CC)N1CCN(C[C@@H](O)[C@H](Cc2ccccc2)NC(=O)O[C@@H]2CCS(=O)(=O)[C@@H]2C(C)C)[C@H](C(=O)NC(C)(C)C)C1 | > 200 nM |  | 
CC(C)[C@@H]1[C@H](OC(=O)N[C@@H](Cc2ccccc2)[C@H](O)CN2CCN(C(C)C)C[C@H]2C(=O)NC(C)(C)C)CCS1(=O)=O | > 200 nM |  | 
CCCN1CCN(C[C@@H](O)[C@H](Cc2ccccc2)NC(=O)O[C@@H]2CCS(=O)(=O)[C@@H]2C(C)C)[C@H](C(=O)NC(C)(C)C)C1 | 100 nM |  | 
CC(C)[C@@H]1[C@H](OC(=O)N[C@@H](Cc2ccccc2)[C@H](O)CN2CCN(C3CCCCCC3)C[C@H]2C(=O)NC(C)(C)C)CCS1(=O)=O | 200 nM |  | 
CC(C)[C@@H]1[C@H](OC(=O)N[C@@H](Cc2ccccc2)[C@H](O)CN2CCN(C3CCOCC3)C[C@H]2C(=O)NC(C)(C)C)CCS1(=O)=O | > 200 nM | 34.6 nM | 
CC(C)CN1CCN(C[C@@H](O)[C@H](Cc2ccccc2)NC(=O)O[C@@H]2CCS(=O)(=O)[C@@H]2C(C)C)[C@H](C(=O)NC(C)(C)C)C1 | 100 nM |  | 
CC(C)[C@@H]1[C@H](OC(=O)N[C@@H](Cc2ccccc2)[C@H](O)CN2CCN(C3CCSC3)C[C@H]2C(=O)NC(C)(C)C)CCS1(=O)=O (some centres not stated) | > 200 nM | 8.3 nM | 
CC(C)[C@@H]1[C@H](OC(=O)N[C@@H](Cc2ccccc2)[C@H](O)CN2CCN(C3CC3)C[C@H]2C(=O)NC(C)(C)C)CCS1(=O)=O | 100 nM |  | 
CC(C)[C@@H]1[C@H](OC(=O)N[C@@H](Cc2ccccc2)[C@H](O)CN2CCN(C3CCC3)C[C@H]2C(=O)NC(C)(C)C)CCS1(=O)=O | 50 nM |  | 
